Assay results: ChEMBL document CHEMBL1158963, “Taxinine M, a new tetracyclic taxane from Taxus brevifolia” (J Nat Prod, 1991)
Converted amounts (≈) assume the structure as drawn.

Assay: Toxicity in brine shrimp after 24 hrs
Assay type: organism-based
Details: artemia, in vivo
`C/C=C(\C)C(=O)N[C@@H](c1ccccc1)[C@@H](O)C(=O)O[C@H]1C[C@@]2(O)[C@@H](OC(=O)c3ccccc3)[C@@H]3[C@]4(OC(C)=O)CO[C@@H]4C[C@H](O)[C@@]3(C)C(=O)[C@H](OC(C)=O)C(=C1C)C2(C)C` [CEPHALOMANNINE] gave an LC50 at 24 h of 0.81 µg/mL (≈ 0.974 µM).
Work on `CC(=O)O[C@H]1C(=O)[C@@]2(C)[C@H]([C@H](OC(=O)c3ccccc3)[C@]3(O)C[C@H](OC(=O)[C@H](O)[C@@H](NC(=O)c4ccccc4)c4ccccc4)C(C)=C1C3(C)C)[C@]1(OC(C)=O)CO[C@@H]1C[C@@H]2O` [PACLITAXEL] yielded an LC50 at 24 h of 0.28 µg/mL (≈ 0.328 µM).
With `C=C1[C@@H](O)C[C@H](OC(C)=O)[C@@]2(COC(=O)c3ccccc3)[C@@H](OC(C)=O)[C@H](OC(C)=O)[C@@]3(O)[C@]4(C)OC[C@]3(C)C(CC4=O)[C@@H](OC(C)=O)[C@H]12` [TAXININE M] the LC50 at 24 h was 620 µg/mL (≈ 903 µM).
